Assay results reported in patent publication US8735601B2, “Pentamethine cyanine fluorescent dye with N-substituting at β-position of conjugated chain” (Dalian University of Technology, priority 2010, dated 2014).
One block for each molecule: values may come before it.

Tests used:
[1] = Absorption and emission spectra of dyes in different solvents; format: physicochemical; design: key to Δλ1 / Δλ2: Stokes shift in nm; ε1 (molar extinction coefficient) / ε2 (molar extinction coefficient): scale not given here; conditions: for Δλ1: Stokes shift to absorption peak 1; for Δλ2: Stokes shift to absorption peak 2
Excerpt: In the present invention, compounds IIa to IIg were synthesized based on compound II, and their spectral properties were investigated. Compared with the traditional pentamethine cyanine dye, for the novel pentamethine cyanine dye with N-substituting at β-position (deviated position), it was observed that, evident blue shift of absorption and emission wavelengths occurred, absorption wavelength blue shifted even largely than that of emission wavelength, absorption spectrum and fluorescence spectrum were no longer mirror-symmetric and had two absorption peaks and a single emission peak, and larger Stokes shift (minimum 60 and 150 nm, and maximum 90 and 230 nm) appeared.

[2] = system: calf thymus DNA (ct-DNA); test: Titration of dye solution with calf thymus DNA, fluorescence and UV absorption; format: binding; conditions: dye 1×10^−6 M, PBS pH 7.4
Experimental: The solutions of compounds Ha to IIc in a concentration of 1×10^−6M (10 mM PBS buffer (pH=7.4) was used as solvent) was prepared, and 3 ml of the each dye solution was added into a cuvette separately. Then, an aqueous calf thymus DNA stock solution was prepared, the concentration of the calf thymus DNA stock solution was determined as 1.5×10^−3 mM by the absorbance at 260 nm on UV absorption spectrophotometer. The calf thymus DNA stock solution was added dropwise into each of the dye solution. The fluorescence intensity of the dye was measured each 5 minutes after addition of […] for fluorescence becoming stable, on UV-visible spectrophotometer (Mode: Hp8453) and fluorescence spectrophotometer (Mode: FP-6500).
From the interaction results of three dyes with calf thymus DNA, it can be known that no evident fluorescence increase was found after the interaction of the dye with the DNA. FIGS. 4 and 5 were titration figures of the interaction of dye lib with calf thymus DNA. […] All of these indicated DNA could be differentiated from protein by dyes IIa, IIb and IIc.

[3] = Measurement of fluorescence quantum yield (Rhodamine B in ethanol as reference); format: physicochemical
[4] = biological target: bovine serum albumin (BSA) (Bos taurus, UniProt P02769); test: Titration of dye solution with BSA, fluorescence and UV absorption; format: binding; conditions: dye solution 1 μM, PBS pH 7.4
bovine serum albumin (BSA), sequence (P02769 25-607): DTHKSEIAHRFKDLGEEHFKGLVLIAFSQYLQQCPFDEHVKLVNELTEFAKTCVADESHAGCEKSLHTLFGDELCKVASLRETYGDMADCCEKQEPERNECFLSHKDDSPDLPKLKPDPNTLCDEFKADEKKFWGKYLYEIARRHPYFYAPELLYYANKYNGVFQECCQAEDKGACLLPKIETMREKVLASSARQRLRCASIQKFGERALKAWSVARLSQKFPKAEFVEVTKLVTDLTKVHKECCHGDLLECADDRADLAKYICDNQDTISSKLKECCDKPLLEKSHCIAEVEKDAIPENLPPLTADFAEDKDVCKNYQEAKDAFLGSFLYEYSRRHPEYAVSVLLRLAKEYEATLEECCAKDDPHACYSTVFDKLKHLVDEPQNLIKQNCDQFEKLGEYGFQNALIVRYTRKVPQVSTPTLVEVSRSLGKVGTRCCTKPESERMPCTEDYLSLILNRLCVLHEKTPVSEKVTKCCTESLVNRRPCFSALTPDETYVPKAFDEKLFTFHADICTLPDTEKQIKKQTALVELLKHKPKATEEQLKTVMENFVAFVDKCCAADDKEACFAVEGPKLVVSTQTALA
Experimental: The solutions of compounds Ha to IIc in a concentration of 1×10^−6M (10 mM PBS buffer (pH=7.4) was used as solvent) was prepared, and 3 ml of the each dye solution was added into a cuvette, respectively. Then, an aqueous bovine serum albumin (BSA) stock solution with the concentration of […] (750 μM) was added dropwise into each of the dye solution. The fluorescence intensity of the dye was measured each 5 minutes after addition of BSA for fluorescence becoming stable, on UV-visible spectrophotometer (Mode: Hp8453) and fluorescence spectrophotometer (Mode: FP-6500).
Especially for dyes IIb and IIc, the fluorescence intensity thereof was increased linearly with addition of BSA to arrive at more than 30 folds.

Δλ1 ([1]; solvent DCM): 96
Δλ1 ([1]; solvent DMSO): 97
Δλ1 ([1]; solvent Ethanol): 97
Δλ1 ([1]; solvent Methanol): 97
Δλ1 ([1]; solvent THF): 88
Δλ1 ([1]; solvent Water): 98
Δλ2 ([1]; solvent DCM): 168
Δλ2 ([1]; solvent DMSO): 154
Δλ2 ([1]; solvent Ethanol): 167
Δλ2 ([1]; solvent Methanol): 169
Δλ2 ([1]; solvent THF): 155
Δλ2 ([1]; solvent Water): 168
ε1 (molar extinction coefficient) ([1]; solvent DCM): 2.8 cm^−1M
ε2 (molar extinction coefficient) ([1]; solvent DCM): 2.1 cm^−1M
λabs1 ([1]; solvent DCM): 526 nm
λbs2 ([1]; solvent DCM): 454 nm
λem ([1]; solvent DCM): 622 nm
ε1 (molar extinction coefficient) ([1]; solvent DMSO): 2.5 cm^−1M
ε2 (molar extinction coefficient) ([1]; solvent DMSO): 2.1 cm^−1M
λabs1 ([1]; solvent DMSO): 515 nm
λbs2 ([1]; solvent DMSO): 458 nm
λem ([1]; solvent DMSO): 612 nm
ε1 (molar extinction coefficient) ([1]; solvent Ethanol): 2.8 cm^−1M
ε2 (molar extinction coefficient) ([1]; solvent Ethanol): 2.3 cm^−1M
λabs1 ([1]; solvent Ethanol): 521 nm
λbs2 ([1]; solvent Ethanol): 451 nm
λem ([1]; solvent Ethanol): 618 nm
ε1 (molar extinction coefficient) ([1]; solvent Methanol): 3.1 cm^−1M
ε2 (molar extinction coefficient) ([1]; solvent Methanol): 2.2 cm^−1M
λabs1 ([1]; solvent Methanol): 522 nm
λbs2 ([1]; solvent Methanol): 450 nm
λem ([1]; solvent Methanol): 619 nm
ε1 (molar extinction coefficient) ([1]; solvent THF): 3.1 cm^−1M
ε2 (molar extinction coefficient) ([1]; solvent THF): 1.9 cm^−1M
λabs1 ([1]; solvent THF): 517 nm
λbs2 ([1]; solvent THF): 450 nm
λem ([1]; solvent THF): 605 nm
ε1 (molar extinction coefficient) ([1]; solvent Water): 1.8 cm^−1M
ε2 (molar extinction coefficient) ([1]; solvent Water): 1.9 cm^−1M
λabs1 ([1]; solvent Water): 517 nm
λbs2 ([1]; solvent Water): 447 nm
λem ([1]; solvent Water): 615 nm
Φ1 (fluorescence quantum yield) ([3]; solvent DCM): 0.124
Φ2 (fluorescence quantum yield) ([3]; solvent DCM): 0.061
Φ1 (fluorescence quantum yield) ([3]; solvent DMSO): 0.005
Φ2 (fluorescence quantum yield) ([3]; solvent DMSO): 0.005
Φ1 (fluorescence quantum yield) ([3]; solvent Ethanol): 0.014
Φ2 (fluorescence quantum yield) ([3]; solvent Ethanol): 0.013
Φ1 (fluorescence quantum yield) ([3]; solvent Methanol): 0.007
Φ2 (fluorescence quantum yield) ([3]; solvent Methanol): 0.008
Φ1 (fluorescence quantum yield) ([3]; solvent THF): 0.109
Φ2 (fluorescence quantum yield) ([3]; solvent THF): 0.099
Φ1 (fluorescence quantum yield) ([3]; solvent Water): 0.001
Φ2 (fluorescence quantum yield) ([3]; solvent Water): 0.001
change of fluorescence intensity by interaction with protein (BSA) [4]: largely increased
Structure (SMILES): CCN1/C(=C/C=C/C(=C/C2=[N+](CC)c3ccccc3C2(C)C)N(CCO)CCO)C(C)(C)c2ccccc21 [Dye IIc]
change of fluorescence by interaction with ct-DNA [2]: little fluorescence increase

Δλ1 ([1]; solvent DCM): 79
Δλ1 ([1]; solvent DMSO): 91
Δλ1 ([1]; solvent Ethanol): 91
Δλ1 ([1]; solvent Methanol): 89
Δλ1 ([1]; solvent THF): 82
Δλ1 ([1]; solvent Water): 103
Δλ2 ([1]; solvent DCM): 167
Δλ2 ([1]; solvent DMSO): 170
Δλ2 ([1]; solvent Ethanol): 177
Δλ2 ([1]; solvent Methanol): 175
Δλ2 ([1]; solvent THF): 158
Δλ2 ([1]; solvent Water): 190
ε1 (molar extinction coefficient) ([1]; solvent DCM): 3.4 cm^−1M
ε2 (molar extinction coefficient) ([1]; solvent DCM): 1.7 cm^−1M
λabs1 ([1]; solvent DCM): 517 nm
λbs2 ([1]; solvent DCM): 429 nm
λem ([1]; solvent DCM): 596 nm
ε1 (molar extinction coefficient) ([1]; solvent DMSO): 3.0 cm^−1M
ε2 (molar extinction coefficient) ([1]; solvent DMSO): 2.3 cm^−1M
λabs1 ([1]; solvent DMSO): 515 nm
λbs2 ([1]; solvent DMSO): 436 nm
λem ([1]; solvent DMSO): 606 nm
ε1 (molar extinction coefficient) ([1]; solvent Ethanol): 3.3 cm^−1M
ε2 (molar extinction coefficient) ([1]; solvent Ethanol): 2.3 cm^−1M
λabs1 ([1]; solvent Ethanol): 521 nm
λbs2 ([1]; solvent Ethanol): 435 nm
λem ([1]; solvent Ethanol): 612 nm
ε1 (molar extinction coefficient) ([1]; solvent Methanol): 3.1 cm^−1M
ε2 (molar extinction coefficient) ([1]; solvent Methanol): 2.4 cm^−1M
λabs1 ([1]; solvent Methanol): 519 nm
λbs2 ([1]; solvent Methanol): 433 nm
λem ([1]; solvent Methanol): 608 nm
ε1 (molar extinction coefficient) ([1]; solvent THF): 3.6 cm^−1M
ε2 (molar extinction coefficient) ([1]; solvent THF): 2.2 cm^−1M
λabs1 ([1]; solvent THF): 503 nm
λbs2 ([1]; solvent THF): 427 nm
λem ([1]; solvent THF): 585 nm
ε1 (molar extinction coefficient) ([1]; solvent Water): 2.1 cm^−1M
ε2 (molar extinction coefficient) ([1]; solvent Water): 1.7 cm^−1M
λabs1 ([1]; solvent Water): 517 nm
λbs2 ([1]; solvent Water): 430 nm
λem ([1]; solvent Water): 620 nm
Φ1 (fluorescence quantum yield) ([3]; solvent DCM): 0.114
Φ2 (fluorescence quantum yield) ([3]; solvent DCM): 0.100
Φ1 (fluorescence quantum yield) ([3]; solvent DMSO): 0.009
Φ2 (fluorescence quantum yield) ([3]; solvent DMSO): 0.008
Φ1 (fluorescence quantum yield) ([3]; solvent Ethanol): 0.019
Φ2 (fluorescence quantum yield) ([3]; solvent Ethanol): 0.017
Φ1 (fluorescence quantum yield) ([3]; solvent Methanol): 0.009
Φ2 (fluorescence quantum yield) ([3]; solvent Methanol): 0.008
Φ1 (fluorescence quantum yield) ([3]; solvent THF): 0.085
Φ2 (fluorescence quantum yield) ([3]; solvent THF): 0.075
Φ1 (fluorescence quantum yield) ([3]; solvent Water): 0.002
Φ2 (fluorescence quantum yield) ([3]; solvent Water): 0.002
change of fluorescence intensity by interaction with protein (BSA) [4]: largely increased
Structure (SMILES): CCN1/C(=C/C=C/C(=C/C2=[N+](CC)c3ccccc3C2(C)C)NCCO)C(C)(C)c2ccccc21 [Dye IIb]
change of fluorescence by interaction with ct-DNA [2]: little fluorescence increase

Structure (SMILES): CCN1/C(=C/C=C/C(=C/C2=[N+](CC)c3ccccc3C2(C)C)Nc2ccccc2)C(C)(C)c2ccccc21 [Dye IIg]
Δλ1 ([1]; solvent DCM): 75
Δλ1 ([1]; solvent DMSO): 80
Δλ1 ([1]; solvent Ethanol): 77
Δλ1 ([1]; solvent Methanol): 77
Δλ1 ([1]; solvent THF): 83
Δλ1 ([1]; solvent Water): 81
Δλ2 ([1]; solvent DCM): 180
Δλ2 ([1]; solvent DMSO): 230
Δλ2 ([1]; solvent Ethanol): 206
Δλ2 ([1]; solvent Methanol): 208
Δλ2 ([1]; solvent THF): 236
Δλ2 ([1]; solvent Water): 200
ε1 (molar extinction coefficient) ([1]; solvent DCM): 3.6 cm^−1M
ε2 (molar extinction coefficient) ([1]; solvent DCM): 2.1 cm^−1M
λabs1 ([1]; solvent DCM): 570 nm
λbs2 ([1]; solvent DCM): 465 nm
λem ([1]; solvent DCM): 645 nm
ε1 (molar extinction coefficient) ([1]; solvent DMSO): 1.9 cm^−1M
ε2 (molar extinction coefficient) ([1]; solvent DMSO): 2.1 cm^−1M
λabs1 ([1]; solvent DMSO): 566 nm
λbs2 ([1]; solvent DMSO): 416 nm
λem ([1]; solvent DMSO): 646 nm
ε1 (molar extinction coefficient) ([1]; solvent Ethanol): 2.5 cm^−1M
ε2 (molar extinction coefficient) ([1]; solvent Ethanol): 2.0 cm^−1M
λabs1 ([1]; solvent Ethanol): 563 nm
λbs2 ([1]; solvent Ethanol): 434 nm
λem ([1]; solvent Ethanol): 640 nm
ε1 (molar extinction coefficient) ([1]; solvent Methanol): 2.3 cm^−1M
ε2 (molar extinction coefficient) ([1]; solvent Methanol): 2.2 cm^−1M
λabs1 ([1]; solvent Methanol): 561 nm
λbs2 ([1]; solvent Methanol): 430 nm
λem ([1]; solvent Methanol): 638 nm
ε1 (molar extinction coefficient) ([1]; solvent THF): 0.9 cm^−1M
ε2 (molar extinction coefficient) ([1]; solvent THF): 2.8 cm^−1M
λabs1 ([1]; solvent THF): 556 nm
λbs2 ([1]; solvent THF): 403 nm
λem ([1]; solvent THF): 639 nm
ε1 (molar extinction coefficient) ([1]; solvent Water): 1.7 cm^−1M
ε2 (molar extinction coefficient) ([1]; solvent Water): 2.2 cm^−1M
λabs1 ([1]; solvent Water): 559 nm
λbs2 ([1]; solvent Water): 440 nm
λem ([1]; solvent Water): 640 nm
Φ1 (fluorescence quantum yield) ([3]; solvent DCM): 0.064
Φ2 (fluorescence quantum yield) ([3]; solvent DCM): 0.055
Φ1 (fluorescence quantum yield) ([3]; solvent DMSO): 0.014
Φ2 (fluorescence quantum yield) ([3]; solvent DMSO): 0.002
Φ1 (fluorescence quantum yield) ([3]; solvent Ethanol): 0.019
Φ2 (fluorescence quantum yield) ([3]; solvent Ethanol): 0.006
Φ1 (fluorescence quantum yield) ([3]; solvent Methanol): 0.011
Φ2 (fluorescence quantum yield) ([3]; solvent Methanol): 0.004
Φ1 (fluorescence quantum yield) ([3]; solvent THF): 0.037
Φ2 (fluorescence quantum yield) ([3]; solvent THF): 0.0002
Φ1 (fluorescence quantum yield) ([3]; solvent Water): 0.003
Φ2 (fluorescence quantum yield) ([3]; solvent Water): 0.001
